Test results reported in patent publication US6071884A, “Pharmaceutical compositions and therapeutic methods” (Kirin Beer Kabushiki Kaisha, priority 1992, dated 2000).

Key:
blood platelets [1] = test: Blood-platelet-increasing effect upon normal mouse; type: in vivo, mouse (BDF1); settings: normal mice; 6 days after 0.1 mg/kg i.v.; mean ± SD; vehicle per series 58.2, 63.0, 71.1
Outline: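 Female BDF1 mice, 6 weeks old (5 per group), received test sample at 0.1 mg/kg into the caudal vein. Six days later, fundus-vein blood was taken and platelets counted on a multi-channel hemocytometer, compared against vehicle-treated animals.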

[2] = system: marrow cells (mononuclear cell fraction); test: Proliferation-stimulating effect on marrow cell of mouse (3H-TdR uptake); type: cell-based, mouse (BALB/c); settings: percentage of control, 72 h; for activity at 0.1 µg/mL: 10^-1 μg/ml; for activity at 0.01 µg/mL: 10^-2 μg/ml; for activity at 0.001 µg/mL: 10^-3 μg/ml
Outline: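 Mononuclear marrow cell fraction from 7-week-old female BALB/c mouse thigh bone, 1.5×10^6 cells/ml in 10% FCS RPMI 1640, cultured with test sample 72 h at 37° C. ³H-thymidine (0.5 μCi/well) then added for 8 h; nuclear ³H-TdR uptake counted by liquid scintillation.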

blood platelets [3] = test: Thrombocytopenia-inhibiting effect in X-ray-irradiated mice; type: in vivo, mouse (BDF1); settings: 10 days after 5 Gy X-ray; 0.1 mg/kg i.v. within 2 h; mean ± SD; vehicle per series 10.3, 6.8, 6.7; non-treatment 68.2, 96.9, 73.0
Outline: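 Female BDF1 mice, 6 weeks old, six per group, given 5 Gy whole-body X-ray, then 0.1 mg/kg i.v. via tail vein within 2 hours. Platelets counted by hemocytometer in fundus-vein blood 10 days later; untreated and vehicle groups run alongside.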

Acute toxicity = type: in vivo; settings: 7 days
Procedure: Test Example 2: Acute Toxicity
0.1, 1.0 or 10 mg/kg of Compound 5 or 33 was intravenously administered to Crj:CD rats (male, 5 weeks old), 6 rats in one group. 7 days after the administration, a toxicity test was carried out.

[4] = Life-span-increasing effect on irradiation of a lethal dose of radiation; type: in vivo, mouse (BDF1); settings: 10 mice/group, 9 Gy X-ray, 0.1 mg/kg i.v. days 0, 4, 8
Procedure: Pharmacological Test 4: Life-Span-Increasing Effect on Irradiation of a Lethal Dose of Radiation
An experiment was carried out by using 6 week old female BDF1 mice purchased from Japan SLC Co., Ltd., with 10 mice made one group.
The entire bodies of the entire body of the mice were irradiated with 9 Gy of X-rays by using a Hitachi X-ray irradiator (MBR-1520R), and the day on which the X-ray was irradiated was referred to as "day 0".

[5] = system: marrow cells (mononuclear cell fraction); test: Effect on marrow cell of monkey (3H-TdR uptake); type: cell-based, croo monkey; settings: Primates, 96 h, percentage of control, 4 days
Procedure: Pharmacological Test 2: Effect on Marrow Cell of Monkey
Marrow cells were prepared from the humerus of a croo monkey, and an MNF obtained by fractionation using a Lymphoprep (Nycomed Pharma AS, Oslo, Norway) was used in the following experiment.
The MNF was suspended in an RPMI 1640 medium added with 10% blood plasma of a croo monkey to make its concentration 1×10^6 cells/ml.
10 μl/well of a sample with a predetermined concentration and 100 μl/well of the above-prepared MNF were placed on a round-bottomed 96 well plate, and incubated under the conditions of 37° C. and 5% CO2 for 4 days. Thereafter, 0.5 μCi/well of ^3 H-TdR was added. After 6 hours, the cells were harvested, and the amount of the ^3 H-TdR taken in the nuclei was measured by a liquid scintillation counter.

[6] = system: mononuclear cell fraction of human umbilical cord blood; test: Proliferation-stimulating effect on mononuclear cell fraction of human umbilical cord blood (3H-TdR uptake); type: cell-based; settings: 96 h, percentage of control, 4 days; for activity at 0.1 µg/mL: 10^-1 μg/ml; for activity at 0.01 µg/mL: 10^-2 μg/ml; for activity at 0.001 µg/mL: 10^-3 μg/ml
Text: Pharmacological Test 3: Proliferation-Stimulating Effect on Mononuclear Cell Fraction of Human Umbilical Cord Blood
It is extremely difficult to obtain human marrow cells. In addition, human umbilical cord blood contains stem cells (Nakahata, T. & Ogwa, M., J. Clin. Inveet. 70, 1324-1328 (1982)), so that it can be a good source of hematopoietic stem/progenitor cell supply (H. E. Broxneyer et al, Proc. Natl. Acad. Sci. USA, 86, 3828-3832 (1989)). For these reasons, the effect on human was examined by using, instead of human marrow cells, human umbilical cord blood.
To human umbilical cord blood was added an equal amount of RPMI 1640. This was placed on a Lymphoprep and centrifugal. The mononuclear cell fraction (MNF) thus obtained was used in the following experiment.
The concentration of the MNF was adjusted to 1×10^6 cells/ml by using an RPMI 1640 added with 10% auto-blood plasma as a culture medium. 10 μl/well of a sample with a predetermined concentration and 100 μl/well of the above-prepared MNF were placed on a round-bottomed 96 well plate and incubated under the conditions of 37° C. and 5% CO2 for 4 days. Thereafter, 0.5 μCi/well of ^3 H-TdR was added. After 8 hour incubation, the cells were harvested, and the amount of the 3H-TdR taken in the nuclei was measured by a liquid scintillation counter.

[7] = day 10, controls per series 10, 10, 10, 10, 10, 8
[8] = day 15, controls per series 8, 9, 5, 5, 7, 1
[9] = day 20, controls per series 4, 5, 1, 2, 3, 0
[10] = day 25, controls per series 3, 3, 0, 0, 2, 0
[11] = day 30, controls per series 1, 1, 0, 0, 0, 0

Row | SMILES | Number of Blood Platelets (blood platelets [1]) | activity at 0.1 µg/mL [2] [%] | activity at 0.01 µg/mL [2] [%] | activity at 0.001 µg/mL [2] [%] | Number of Blood Platelets (blood platelets [3]) | death of rats (Acute toxicity; 10 mg/kg i.v.) | post-mortem examination (Acute toxicity; i.v. 0.1, 1.0 or 10 mg/kg) | Number of Surviving Mice [4, 7] [mice] | Number of Surviving Mice [4, 8] [mice] | Number of Surviving Mice [4, 9] [mice] | Number of Surviving Mice [4, 10] [mice] | Number of Surviving Mice [4, 11] [mice] | Number of Surviving Mice ([4]; day 35, all controls 0) [mice] | Number of Surviving Mice ([4]; day 40, all controls 0) [mice] | activity at 0.1 µg/mL ([5]; 10^-1 μg/ml) [%] | activity at 0.01 µg/mL ([5]; 10^-2 μg/ml) [%] | activity at 0.1 µg/mL [6] [%] | activity at 0.01 µg/mL [6] [%] | activity at 0.001 µg/mL [6] [%] | activity at 1 µg/mL ([2]; 10^0 μg/ml) [%]
1 | CCCCCCCCCCCCCCC[C@@H](O)[C@H](CO[C@H]1O[C@H](CO)[C@H](O)[C@H](O)[C@H]1O)NC(=O)CCCCCCCCCCCCC [Compound 5, (2S,3R)-1-(α-D-galactopyranosyloxy)-2-tetradecanoylamino-3-octadecanol] | 106.0 ± 9.0 × 10^4 /μl | 377 | 261 | 234 | 20.3 ± 4.5 × 10^4 /μl | the rats did not die | no abnormality was found | 10 | 9 | 9 | 9 | 9 | 9 | 9 | – | – | – | – | – | –
2 | CCCCCCCCCCCCCCCCCCCCCCCC[C@@H](O)C(=O)N[C@@H](CO[C@H]1O[C@H](CO)[C@H](O)[C@H](O)[C@H]1O)[C@H](O)[C@H](O)CCCCCCCCCCCCCC [Compound 25] | 124.1 ± 14.7 × 10^4 /μl | 331 | 161 | 153 | 15.6 ± 5.3 × 10^4 /μl | – | – | 10 | 10 | 7 | 7 | 5 | 5 | 5 | 184 | 186 | 336 | 319 | 229 | –
3 | CCCCCCCCCCCCCCCCCCCCCCCC(=O)N[C@@H](CO[C@H]1O[C@H](CO)[C@H](O)[C@H](O)[C@H]1O)[C@H](O)[C@H](O)CCCCCCCCCCC [Compound 18, (2S,3S,4R)-1-(α-D-galactopyranosyloxy)-2-tetracosanoylamino-3,4-pentadecanediol] | 111.7 ± 5.4 × 10^4 /μl | 472 | 124 | 129 | 24.3 ± 8.6 × 10^4 /μl | – | – | 10 | 10 | 8 | 7 | 7 | 7 | 7 | – | – | 298 | 177 | 135 | –
4 | CCCCCCCCCCCCCCCCCCCCCC[C@@H](O)C(=O)N[C@@H](CO[C@H]1O[C@H](CO)[C@H](O)[C@H](O)[C@H]1O)[C@H](O)[C@H](O)CCCCCCCCCCCCCC [Compound 21, (2S,3S,4R)-1-(α-D-galactopyranosyloxy) -2-[(R) -2-hydroxytetracosanoylamino]-3,4-octadecanediol] | 94.8 ± 7.7 × 10^4 /μl | 244 | 96 | 84 | 22.7 ± 3.7 × 10^4 /μl | – | – | 10 | 10 | 10 | 10 | 10 | 10 | 10 | – | – | 552 | 530 | 305 | 799
5 | CCCCCCCCCCCCCCCCCCCCCCCC[C@@H](O)C(=O)N[C@@H](CO[C@H]1O[C@H](CO)[C@H](O)[C@H](O)[C@H]1O)[C@H](O)[C@H](O)CCCCCCCCCCCCCCCC [Compound 27, (2S,3S,4R)-1-(α-D-galactopyranosyloxy)-2-[(R)-2-hydroxyhexacosanoylamino]-3,4-icosanediol] | 101.3 ± 7.1 × 10^4 /μl | 220 | 165 | 156 | 16.0 ± 4.1 × 10^4 /μl | – | – | 10 | 10 | 9 | 9 | 9 | 9 | 9 | – | – | 450 | 486 | 344 | –
6 | CCCCCCCCCCCCCCCCCCCCCCCCCCCC(=O)N[C@@H](CO[C@H]1O[C@H](CO)[C@H](O)[C@H](O)[C@H]1O)[C@H](O)[C@H](O)CCCCCCCCCCCCC [Compound 34, (2S,3S,4R)-1-(α-D-galactopyranosyloxy)-2-octacosanoylamino-3,4-heptadecanediol] | 110.1 ± 9.0 × 10^4 /μl | 272 | 183 | 150 | 24.4 ± 5.6 × 10^4 /μl | – | – | 10 | 10 | 10 | 9 | 9 | 9 | 9 | – | – | 467 | 258 | 291 | –
7 | CCCCCCCCCCCCCCCCCCCCCCCC(=O)N[C@@H](CO[C@H]1O[C@H](CO)[C@H](O)[C@H](O)[C@H]1O)[C@H](O)[C@H](O)CCCCCCCCCCCCCC [Compound 16, (2S,3S,4R)-1-(α-D-galactopyranosyloxy)-2-tetracosanoylamino-3,4-octadecanediol] | 114.7 ± 13.0 × 10^4 /μl | 495 | 152 | 115 | 21.1 ± 6.2 × 10^4 /μl | – | – | 10 | 6 | 6 | 6 | 6 | 6 | 6 | – | – | 311 | 204 | 216 | –
